Results reported in publication PMC8869358, “High-Throughput Chemical Screening and Structure-Based Models to Predict hERG Inhibition” (Biology, 2022).
Structures can show the parent of a compound that is named as a salt.

What follows are compounds tested against hERG (Homo sapiens, UniProt Q12809) (assay: cell-based). Conditions: (-LOG10(IC50), µM).
hERG, sequence (Q12809 whole entry): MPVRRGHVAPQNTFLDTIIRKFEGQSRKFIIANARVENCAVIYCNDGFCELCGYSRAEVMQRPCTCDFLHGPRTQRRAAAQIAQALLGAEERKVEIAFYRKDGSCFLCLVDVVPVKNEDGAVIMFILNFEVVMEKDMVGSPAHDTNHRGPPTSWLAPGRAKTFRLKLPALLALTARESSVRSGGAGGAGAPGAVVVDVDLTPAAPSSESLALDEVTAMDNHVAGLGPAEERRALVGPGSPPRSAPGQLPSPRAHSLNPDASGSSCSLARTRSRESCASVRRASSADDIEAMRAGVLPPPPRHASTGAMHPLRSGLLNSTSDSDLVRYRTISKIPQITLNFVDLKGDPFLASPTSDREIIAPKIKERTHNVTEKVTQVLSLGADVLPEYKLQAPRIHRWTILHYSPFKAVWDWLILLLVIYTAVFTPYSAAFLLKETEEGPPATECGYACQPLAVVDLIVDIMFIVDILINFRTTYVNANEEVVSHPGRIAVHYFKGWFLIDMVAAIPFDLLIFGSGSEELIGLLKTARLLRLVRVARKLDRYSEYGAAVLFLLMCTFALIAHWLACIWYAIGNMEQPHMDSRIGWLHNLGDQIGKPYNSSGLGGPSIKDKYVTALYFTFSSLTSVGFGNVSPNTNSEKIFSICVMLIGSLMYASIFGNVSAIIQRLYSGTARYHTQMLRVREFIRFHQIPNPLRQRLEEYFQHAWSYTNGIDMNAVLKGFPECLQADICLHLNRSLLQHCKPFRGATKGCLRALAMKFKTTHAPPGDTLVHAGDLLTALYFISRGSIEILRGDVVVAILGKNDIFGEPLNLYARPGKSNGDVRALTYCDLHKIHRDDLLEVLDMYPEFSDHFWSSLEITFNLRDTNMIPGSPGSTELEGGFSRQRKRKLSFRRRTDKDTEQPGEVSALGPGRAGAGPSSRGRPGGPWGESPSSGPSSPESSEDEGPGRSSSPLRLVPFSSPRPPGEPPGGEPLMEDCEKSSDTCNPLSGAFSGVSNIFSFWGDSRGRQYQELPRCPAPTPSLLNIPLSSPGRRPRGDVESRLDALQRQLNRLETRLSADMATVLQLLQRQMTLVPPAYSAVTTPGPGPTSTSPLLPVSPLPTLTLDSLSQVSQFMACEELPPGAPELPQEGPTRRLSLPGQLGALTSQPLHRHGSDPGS
COc1cc(C(C)=O)ccc1OCCCN1CCC(c2noc3cc(F)ccc23)CC1 [Iloperidone] was tested, and the IC50 was 1.4 µM. CCCCCCCCCCCCCCCCn1cc[n+](C)c1 [1-Hexadecyl-3-methylimidazolium chloride] was tested, and the IC50 was 14.1 µM. CC(=O)OC1(c2ccccc2)CCN(CCc2ccccc2)CC1 [1-(2-Phenylethyl)-4-phenyl-4-acetoxypiperidine] was tested, and the IC50 was 22.4 µM. CN1CCC(N(Cc2cccs2)c2ccccc2)CC1 [Thenalidine] gave an IC50 of 4.96 µM. With CCCCCCCCCCCCCCCCCC[N+](C)(C)C [N,N,N-Trimethyloctadecan-1-aminium chloride] the IC50 was 17.4 µM. CCOC(=O)COc1ccc2c(C)c(CCN(CC)CC)c(=O)oc2c1Cl [Cloricromen hydrochloride] was tested, and the IC50 was 20.5 µM. For O=C1OC2(c3ccccc31)c1ccc(O)c(Br)c1Oc1c2ccc(O)c1Br [C.I. Solvent Red 72], the IC50 was 34.7 µM. For OCCN1CCN(CC/C=C2/c3ccccc3Sc3ccc(C(F)(F)F)cc32)CC1 [cis-Flupentixol], the IC50 was 1.69 µM. With CC[N+]1(CC)CCC(=C(c2ccccc2)c2ccccc2)C1C (centres unmarked) [Prifinium bromide] the IC50 was 20.5 µM. BrCC(Br)C1CCC(Br)C(Br)C1 (centres unmarked) [1,2-Dibromo-4-(1,2-dibromoethyl)cyclohexane] showed an IC50 of 34.5 µM. For C=CCC1=C(C)[C@@H](OC(=O)[C@@H]2[C@@H](C=C(C)C)C2(C)C)CC1=O [S-Bioallethrin], the IC50 was 23.6 µM. For CCCCCCCCN(C)CCCCCCCC [N-Methyldioctylamine], the IC50 was 3.25 µM. CN[C@H]1CC[C@@H](c2ccc(Cl)c(Cl)c2)c2ccc(S(N)(=O)=O)cc21 [UK-373911] gave an IC50 of 6.92 µM. Clc1ccc(C(c2ccc(Cl)cc2)C(Cl)Cl)cc1 [p,p'-DDD] showed an IC50 of 25.5 µM. CCN(CC)CCCN(c1ccccc1)C1Cc2ccccc2C1 [Aprindine hydrochloride] showed an IC50 of 2.79 µM. CCCCCCCCCCCC[N+](C)(C)CCOc1ccccc1 [Domiphen bromide] showed an IC50 of 1.34 µM. Work on CCN(CC)CCOC(=O)C(C)(c1ccccc1)c1ccccc1 [Aprofene] yielded an IC50 of 9.16 µM. Compound Cc1cc(C)c(C(=O)P(=O)(c2ccccc2)c2ccccc2)c(C)c1 [Diphenyl(2,4,6-trimethylbenzoyl)phosphine oxide] has an IC50 of 20.3 µM. CC(C)Oc1cccc(NC(=O)c2ccccc2C(F)(F)F)c1 [Flutolanil] showed an IC50 of 50.9 µM. CC(NCCC(c1ccccc1)c1ccccc1)c1ccccc1 (centres unmarked) [Fendiline hydrochloride] showed an IC50 of 1.69 µM. In the case of CCCCCCCCCCCCN(CCO)CCO [Lauryldiethanolamine], the IC50 is reported as 11.8 µM. Compound CN1CCC(=C2c3ccccc3Sc3ccccc32)CC1 [Pimethixene maleate] has an IC50 of 9.89 µM. With CCN(CC)CCOc1ccc(Cc2ccccc2)cc1 [Tesmilifene] the IC50 was 8.82 µM. CCCCCCCCCCn1cc[n+](C)c1 [1-Decyl-3-methylimidazolium bromide] showed an IC50 of 15 µM. For CC1(C)CCC(C)(C)c2cc(C(=O)Nc3ccc(C(=O)O)cc3)ccc21 [AM580], the IC50 was 43.6 µM. NCCNc1cccc2ccccc12 [N-(1-Naphthyl)ethylenediamine dihydrochloride] showed an IC50 of 40.2 µM. COP(=S)(OC)Oc1cc(Cl)c(I)cc1Cl [Iodenphos] gave an IC50 of 45.3 µM. For BrC1CCC(Br)C(Br)CCC(Br)C(Br)CCC1Br (centres unmarked) [1,2,5,6,9,10-Hexabromocyclododecane], the IC50 was 19.2 µM. CN(C)CCCN1c2ccccc2Sc2ccccc21 [Promazine hydrochloride] was tested, and the IC50 was 9.52 µM. For CCN1CCN(c2cc(-c3ccc(F)cc3)c3c(n2)CCCCCC3)CC1 [Blonanserin], the IC50 was 3.99 µM. Work on CCCCCOc1ccccc1/C(=C\SC)n1ccnc1 [Neticonazole] yielded an IC50 of 20.5 µM. Work on COc1ccc(C(=O)c2ccccc2)c(O)c1 [2-Hydroxy-4-methoxybenzophenone] yielded an IC50 of 43.6 µM. Work on CCOC(=O)COc1cc(-c2nn(C)c(OC(F)F)c2Cl)c(F)cc1Cl [Pyraflufen-ethyl] yielded an IC50 of 33.4 µM. OCCN1CCN(CCCN2c3ccccc3Sc3ccc(C(F)(F)F)cc32)CC1 [Fluphenazine] gave an IC50 of 2.79 µM. With CCCCCCCCCCn1cc[n+](C)c1 [1-Decyl-3-methylimidazolium hexafluorophosphate] the IC50 was 8.37 µM. Compound CC1CCCCN1CCCOC(=O)c1ccc(OC2CCCCC2)cc1 (centres unmarked) [Cyclomethycaine] has an IC50 of 2.68 µM. OC(C#CCN1CCCC1)(c1ccccc1)c1ccccc1 [Butinoline] gave an IC50 of 19 µM. In the case of CCN(CC)CCOC(=O)C(Cc1cccc2ccccc12)CC1CCCO1 (centres unmarked) [Nafronyl oxalate], the IC50 is reported as 8.99 µM. O=c1[nH]c2ccccc2n1CCCN1CCN(C(c2ccccc2)c2ccccc2)CC1 [Oxatomide] gave an IC50 of 0.442 µM. Work on O=C1OC2(c3ccc(O)cc3Oc3cc(O)ccc32)c2ccccc21 [Fluorescein] yielded an IC50 of 21.9 µM. CCCCCCCCCCCCCCCC[N+](C)(C)Cc1ccccc1 [Benzylhexadecyldimethylammonium chloride] showed an IC50 of 3.94 µM. In the case of CCCCOC(=O)[C@@H](C)Oc1ccc(Oc2ccc(C(F)(F)F)cn2)cc1 [Fluazifop-P-butyl], the IC50 is reported as 22 µM. With Cc1ccc(C=C2C(=O)C3(C)CCC2C3(C)C)cc1 (centres unmarked) [Enzacamene] the IC50 was 30.7 µM. C[C@H]1C[C@H]2[C@@H]3CCC4=CC(=O)C=C[C@]4(C)[C@@]3(Cl)[C@@H](O)C[C@]2(C)[C@@]1(O)C(=O)CO [Beclomethasone] showed an IC50 of 23.9 µM. Compound O=C(CCS)OCC(COC(=O)CCS)(COC(=O)CCS)COC(=O)CCS [3-[(3-Sulfanylpropanoyl)oxy]-2,2-bis{[(3-sulfanylpropanoyl)oxy]methyl}propyl 3-sulfanylpropanoate] has an IC50 of 33.4 µM. CNCCC(Oc1ccccc1OC)c1ccccc1 (centres unmarked) [Nisoxetine] was tested, and the IC50 was 9.52 µM. For c1ccc(C(O[C@H]2CCCN(CCc3ccc4c(c3)OCO4)C2)c2ccccc2)cc1 [Zamifenacin fumarate], the IC50 was 0.535 µM. For C(=C(c1ccccc1)c1ccccc1)c1ccccc1 [Triphenylethylene], the IC50 was 18.1 µM. In the case of O=[N+]([O-])c1ccc(Oc2ccc([N+](=O)[O-])cc2)cc1 [1,1'-Oxybis(4-nitrobenzene)], the IC50 is reported as 32.8 µM. For CC1(C)CCC[C@]2(C)[C@H]3CC(=O)O[C@]3(C)CC[C@@H]12 [(3aR)-(+)-Sclareolide], the IC50 was 42 µM. Work on CCC(OC(C)=O)C(C[C@H](C)NC)(c1ccccc1)c1ccccc1 (mixture of isomers) [L-Î±lpha-Noracetylmethadol hydrochloride] yielded an IC50 of 7.53 µM. For C[C@]12CC[C@H]3[C@@H](CCC4=CC(=O)CC[C@@H]43)[C@@H]1CC[C@@H]2OC(=O)CCC1CCCCC1 [Nandrolone cyclohexylpropionate], the IC50 was 15.1 µM. In the case of O=[N+]([O-])c1cc(C(F)(F)F)c(Cl)c([N+](=O)[O-])c1Cl [2,4-Dichloro-1,3-dinitro-5-(trifluoromethyl)benzene], the IC50 is reported as 34.7 µM. For CCOC(=O)C(C)Oc1ccc(Oc2cnc3cc(Cl)ccc3n2)cc1 (centres unmarked) [Quizalofop-ethyl], the IC50 was 17.1 µM. COc1ccc(C(=O)c2ccc(C)cc2)c(O)c1 [Mexenone] showed an IC50 of 45.9 µM. CCN(CC)CCOC(=O)C(c1ccccc1)C1CCCCC1 (centres unmarked) [Drofenine hydrochloride] was tested, and the IC50 was 7.86 µM. Work on CCCCOc1ccc(C(=O)CCN2CCCCC2)cc1 [Dyclonine hydrochloride] yielded an IC50 of 20.1 µM. Compound CCOC(=O)COC(=O)c1cc(Oc2ccc(C(F)(F)F)cc2Cl)ccc1[N+](=O)[O-] [Fluoroglycofen-ethyl] has an IC50 of 13.8 µM. Clc1nc(C(Cl)(Cl)Cl)c(Cl)c(Cl)c1Cl [2,3,4,5-Tetrachloro-6-(trichloromethyl)pyridine] showed an IC50 of 49 µM.
